Where two headings read alike, the source gives them in different places.
Experiments:
[1] = tested on: wild type yeast (BY4741) and null mutants; experiment: Yeast chronological aging, survival plating (clonogenicity); format: cell-based
Protocol: Experiments were carried out in BY4741 (MATa his3Δ1 leu2Δ0 met15Δ0 ura3Δ0) and respective null mutants, obtained from Euroscarf. The double mutant Δiki3Δsas3 was generated according to Gueldener at al. (2002) Nucleic Acids Res. 30, e23 by using gene-specific URA3-knockout cassette, amplified by PCR with pUG72 as template (Lovaas & Carlin (1991) Free Radic Biol Med 11, 455-46.). […] All spe1 double mutant strains were obtained through mating and sporulation of BY4741 Δspe1 with the respective BY4742 ([…]) single mutant strains. Single and double mutant strains were verified for correct gene deletion by PCR and further checked for consistent auxotrophies. […] Strains were grown at 28° C. on SC medium containing 0.17% yeast nitrogen base (Difco), 0.5% (NH4)2SO4 and 30 mg/l of all amino acids (except 80 mg/l histidine and 200 mg/l leucine), 30 mg/l adenine, and 320 mg/l uracil with 2% glucose (SCD). […] To construct NHP6A-EGFP in pUG35-Ura (giving rise to a C-terminally tagged chimeric fusion protein under control of the met25-Promotor) the insert was amplified by PCR using genomic DNA from BY4741 as template and cloned into pUG35 using the EcoRI restriction site. The EGFP-ATG8 construct in pUG36-Ura (N-terminally tagged fusion protein) was similarly generated, using EcoRI and ClaI restriction sites.
In case of experiments with Δspe1 (FIG. 24 A-E), all strains were inoculated to 5·10^4 cells/ml. […] Therefore, for calculation of survival rates in experiments using Δiki3Δsas3, cell numbers of each sample were determined after two pulse of sonication on ice with Sonifier 250 from Benson (Duty Cycle: 35; Output Control: 2.5). Tests for apoptotic (TUNEL and Annexin V staining) and necrotic (PI staining) markers as well as markers for oxidative stress (DHE staining) were performed as described in Dod et al. (1982) Eur J Biochem 121, 401-405). For quantifications using flow cytometry (BD FACSAria), 30,000 cells were evaluated and analyzed with BD FACSDiva software. Spermidine (S4139, Sigma, Austria) and putrescine (P5780, Sigma, Austria; 1 mM final concentration) were added to stationary cultures at day 1 of the aging experiments (24 h after inoculation). 1 M aqueous stock solution of spermidine was stored in one use aliquots at −20° C. for no longer than 1 month. For adjustment of extracellular pH (pHex) to 6 (±0.5), the required amount of sodium hydroxide was added 30 h after inoculation. The pHex was maintained at approximately 6 (±0.5) throughout the aging.

acute liver injury = conditions: cited from earlier work

## NCCCCN [putrescine, 1,4-diamino-butane]
[1]
  chronological life span of polyamine depleted cells: restored
Acute liver injury; administered 2, 5 and 8 hours after injection of cadmium chloride
  effect on acute liver injury: protective effect
Acute liver injury; administered 12, 15 and 18 h after cadmium injection
  effect on acute liver injury: did not provide a protective effect

Reference: patent publication US20120015901A1, “METHODS AND PREPARATIONS FOR PROTECTING CRITICALLY ILL PATIENTS” (priority 2009, published 2012)
